From ChEMBL document CHEMBL1154337, “Synthesis of a novel C2/C2'-aryl-substituted pyrrolo[2,1-c][1,4]benzodiazepine dimer prodrug with improved water solubility and reduced DNA reaction rate” (Bioorg Med Chem Lett, 2009)

Assays:
[1] = test system: DU-145; assay: Cytotoxicity against human DU145 cells by alamar blue assay; format: functional
[2] = test system: K562; assay: Cytotoxicity against human K562 cells by alamar blue assay; format: functional
[3] = test system: RPMI-8226; assay: Cytotoxicity against human RPMI8226 cells by alamar blue assay; format: functional
[4] = Cytotoxicity against human LNCaP-FGC cells by alamar blue assay; format: functional; conditions: LNCaP-Clone-FGC
[5] = test system: A2780; assay: Cytotoxicity against human A2780 cells by alamar blue assay; format: functional
[6] = test system: A549; assay: Cytotoxicity against human A549 cells by alamar blue assay; format: functional
[7] = test system: MCF7; assay: Cytotoxicity against human MCF7 cells by alamar blue assay; format: functional
[8] = test system: Nucleic Acid; assay: Induction of Escherichia coli pUC18 DNA interstrand crosslinking activity assessed as time required to reach peak; format: nucleic-acid assay
[9] = test system: LOX IMVI; assay: Cytotoxicity against human LOXIMVI cells by alamar blue assay; format: functional

For COc1ccc(C2=CN3C(=O)c4cc(OC)c(OCCCOc5cc6c(cc5OC)C(=O)N5C=C(c7ccc(OC)cc7)C[C@H]5C=N6)cc4N=C[C@@H]3C2)cc1, the GI50 [1] was 0.0154 nM, the GI50 [2] was 0.013 nM and the GI50 [3] was 5.1 pM. The GI50 [4] was 2.7 pM, the GI50 [5] was 2.4 pM and the GI50 [6] was 0.033 nM. It also gave a GI50 [7] of 0.0186 nM, an Activity [8] of 2 h and a GI50 [9] of 0.0225 nM.

With C=C1C[C@H]2C=Nc3cc(OCCCOc4cc5c(cc4OC)C(=O)N4CC(=C)C[C@H]4C=N5)c(OC)cc3C(=O)N2C1 [SJG-136] the GI50 [2] was 0.419 nM.
